Experiment [1] concerns gastric secretion (HCl) (rat stomach). The experiment can be described thus: Shay rat: inhibition of gastric secretion (HCl) in the course of 4 h. The class given is in vivo. To be noted: for ED25 / ED50: Rattus norvegicus, po, perorally, rats; for ED25: dose reducing HCl secretion (4 h) by 25% vs control; for ED50: dose reducing HCl secretion (4 h) by 50% vs control; for Gastric secretion (rats): % inhibition of HCl secretion: after administration of the antiulcerous ED50, perorally, 4 h. The procedure: (§1) In these experiments, the compounds according to the invention were compared with prior art compounds (A-D) of European Patent Applications Nos. 0 005 129 and 0 074 341. The compounds investigated are numbered as follows: The influence of the compounds of the prior art and the compounds according to the invention on gastric lesion formation induced by pyloric ligature (4 h; so-called Shay rat) and oral administration of 100 mg/kg of acetylsalicyclic acid, and the gastric secretion (HCl) in the course of 4 h in rats is shown in the following table. | *ED25 and ED50 = dose which reduces the lesion index or the HCL | secretion(4h) in the rat stomach by 25 and, respectively, 50% in the | treated group in comparison with the control group. | **after administration of the antiulcerous ED50. The antiulcerogenic action was tested by the so-called Shay rat method: Ulcers are caused in rats which have been fasted for 24 hours (female, 180-200 g, 4 animals per cage on a high grid) by pyloric ligature (under diethyl ether anesthesia) and oral administration of 100 mg/10 ml/kg of acetylsalicylic acid. The substances to be tested are administered orally (10 ml/kg) one hour before the pyloric ligature. The wound is closed by means of Michel clamps. 4 hours thereafter, the animals are sacrificed under ether anesthesia by Atlas dislocation and resection of the stomach. The stomach is opened longitudinally and attached to a cork plate, after the amount of gastric juice secreted (volume) and later its HCl content (titration with sodium hydroxide solution) have first been determined; the number and size (=diameter) of the ulcers present are determined under a stereomicroscope at 10-fold magnification. The product of the degree of severity (according to the following points scale) and number of ulcers serves as the individual lesion index. The reduction in the average lesion index of each treated group compared with the control group (=100%) serves as a measure of the antiulcerogenic effect.

Experiment [2] deals with gastric lesion formation (rat stomach). The experiment can be described thus: Shay rat: inhibition of gastric lesion formation induced by pyloric ligature and oral acetylsalicylic acid (protective effect on the stomach). The class given is in vivo. The following applies: perorally, rats, 1 h before pyloric ligature, 4 h, 100 mg/kg acetylsalicylic acid, dose reducing lesion index by 50% vs control. The procedure: as §1, with “group.” for “group. | **after administration of the antiulcerous ED50.”

In the case of `COc1c(C)cnc(C[S+]([O-])c2nc3cc(OC(F)(F)F)ccc3[nH]2)c1C` (stereo not drawn) [Serial No. 8, 2-[(4-methoxy-3,5-dimethyl-2-pyridyl)methylsulfinyl]-5-trifluoromethoxy-1H-benzimidazole], in experiment [1], the ED25 came to 1 mg/kg, the 50% effect level (ED50) was put at a dose of 1.5 mg/kg and the “Gastric secretion (rats): % inhibition of HCl secretion” value (from here on “Gastric secretion (rats): % inhibition”) is 20%. This compound also displayed an ED50 in experiment [2] of 0.4 mg/kg.

With `COc1cc2[nH]c([S+]([O-])Cc3nccc(OC)c3C)nc2cc1OC(F)F` (stereo not drawn) [Serial No. 16, 5-difluoromethoxy-6-methoxy-2-[(4-methoxy-3-methyl-2-pyridyl)methylsulfinyl]-1H-benzimidazole], the ED50 was around 0.8 mg/kg in experiment [1] and 0.2 mg/kg in experiment [2].

For `COc1ccnc(CSc2nc3cc(OC(F)F)c(OC(F)F)cc3[nH]2)c1C` [Serial No. 15, 5,6-bis(difluoromethoxy)-2-[(4-methoxy-3-methyl-2-pyridyl)methylthio]-1H-benzimidazole], in experiment [1], the ED25 was determined as 0.5 mg/kg, it took a dose of 1 mg/kg to reach the 50% effect level (ED50) and the “Gastric secretion (rats): % inhibition” value came out at 30%. In experiment [2], this compound gave an ED50 of 0.6 mg/kg.

As to `COc1ccnc(C[S+]([O-])c2nc3cc(OC(F)(F)F)ccc3[nH]2)c1C` (stereo not drawn) [Serial No. 3, 2-[(4-methoxy-3-methyl-2-pyridyl)methylsulfinyl]-5-trifluoromethoxy-1H-benzimidazole], in experiment [1], the ED25 is below 0.3 mg/kg, the 50% effective dose (ED50) came to 0.4 mg/kg and the “Gastric secretion (rats): % inhibition” value was determined as 32%. This compound also displayed an ED50 in experiment [2] of 0.3 mg/kg.

On to `COc1ccnc(C[S+]([O-])c2nc3cc(OC(F)(F)F)ccc3[nH]2)c1` (stereo not drawn) [Serial No. 1, 2-[(4-methoxy-2-pyridyl)methylsulfinyl]-5-trifluoromethoxy-1H-benzimidazole], for which, in experiment [1], the ED25 worked out at 0.5 mg/kg, the ED50 came to 1.1 mg/kg and the “Gastric secretion (rats): % inhibition” value was found to be 32%. The ED50 in experiment [2] came to 0.6 mg/kg.

Consider `COc1ccnc(C[S+]([O-])c2nc3cc(OC(F)(F)C(F)F)ccc3[nH]2)c1` (stereo not drawn) [Serial No. 5, 2-[(4-methoxy-2-pyridyl)methylsulfinyl]-5-(1,1,2,2-tetrafluoroethoxy)-1H-benzimidazole], for which, in experiment [1], the ED25 was 0.5 mg/kg, the ED50 is 1.2 mg/kg and the “Gastric secretion (rats): % inhibition” value came out at 33%. This compound also showed an ED50 in experiment [2] of 0.7 mg/kg.

In the case of `COc1cc2[nH]c(SCc3nccc(OC)c3C)nc2cc1OC(F)F` [Serial No. 17, 5-difluoromethoxy-6-methoxy-2-[(4-methoxy-3-methyl-2-pyridyl)methylthio]-1H-benzimidazole], in experiment [1], the ED25 is around 0.3 mg/kg, the ED50 is around 0.8 mg/kg and the “Gastric secretion (rats): % inhibition” value is given as ~ 25%. The compound also gave an ED50 in experiment [2] of around 0.3 mg/kg.

Consider `COc1ccc2[nH]c([S+]([O-])Cc3cc(OC)c(C)cn3)nc2c1` (stereo not drawn) [Serial No. D, 5-methoxy-2-[(4-methoxy-5-methyl-2-pyridylmethyl)sulfinyl]-1H--benzimidazole, reference compound], for which, in experiment [1], the ED25 was 8 mg/kg, the ED50 came out at 18 mg/kg and the “Gastric secretion (rats): % inhibition” value is reported as 10%. In experiment [2], this compound showed an ED50 of around 5 mg/kg.

Regarding `COc1ccnc(C[S+]([O-])c2nc3cc(OC(F)F)c(OC(F)F)cc3[nH]2)c1` (stereo not drawn) [Serial No. 13, 5,6-bis(difluoromethoxy)-2-[(4-methoxy-2-pyridyl)methylsulfinyl]-1H-benzimidazole], in experiment [1], the ED25 was around 1.1 mg/kg, the ED50 was around 1.7 mg/kg and the “Gastric secretion (rats): % inhibition” value is given as ~ 30%. In experiment [2], this compound displayed an ED50 of around 1.2 mg/kg.

Take `COc1ccnc(C[S+]([O-])c2nc3cc(OCC(F)(F)F)ccc3[nH]2)c1C` (stereo not drawn) [Serial No. 10, 2-[(4-methoxy-3-methyl-2-pyridyl)methylsulfinyl]-5-(2,2,2-trifluoroethoxy)-1H-benzimidazole]: in experiment [1], the ED25 was 0.5 mg/kg, the ED50 stood at 0.7 mg/kg and the “Gastric secretion (rats): % inhibition” value is listed as 25%. In experiment [2], this compound showed an ED50 of 0.5 mg/kg.

For `COc1ccc2[nH]c(SCc3cc(OC)c(C)cn3)nc2c1` [Serial No. C, 5-methoxy-2-[(4-methoxy-5-methyl-2-pyridylmethyl)thio]-1H--benzimidazole, reference compound], the ED25 in experiment [1] was above 60.6 mg/kg. Further, in experiment [2], the ED50 is around 30 mg/kg.

With `COc1ccc2[nH]c(SCc3ncc(C)c(OC)c3C)nc2c1` [Serial No. A, 5-methoxy-2-[(4-methoxy-3,5-dimethyl-2-pyridylmethyl)thio]-1H--benzimidazole, reference compound], in experiment [1], the ED25 was determined as 12 mg/kg, the ED50 turned out to be 25 mg/kg and the “Gastric secretion (rats): % inhibition” value came to 20%. For the same compound, in experiment [2], the ED50 is 9 mg/kg.

With `COc1ccnc(CSc2nc3cc(OC(F)(F)F)ccc3[nH]2)c1C` [Serial No. 2, 2-[(4-methoxy-3-methyl-2-pyridyl)methylthio]-5-trifluoromethoxy-1H-benzimidazole], in experiment [1], the ED25 is 0.35 mg/kg, the ED50 was determined as 0.5 mg/kg and the “Gastric secretion (rats): % inhibition” value stood at 20%. The ED50 in experiment [2] was found to be 0.3 mg/kg.

In the case of `COc1ccnc(C[S+]([O-])c2nc3cc(OC(F)(F)Cl)ccc3[nH]2)c1` (stereo not drawn) [Serial No. 18, 5-chlorodifluoromethoxy-2-[(4-methoxy-2-pyridyl)methylsulfinyl]-1H-benzimidazole], in experiment [1], the ED25 was below 1 mg/kg, the 50% effect level (ED50) was put at a dose of 1.8 mg/kg and the “Gastric secretion (rats): % inhibition” value is recorded as 35%. The compound also registered an ED50 in experiment [2] of 1.3 mg/kg.

With `COc1ccnc(C[S+]([O-])c2nc3cc(OC(F)F)ccc3[nH]2)c1C` (stereo not drawn) [Serial No. 12, 5-difluoromethoxy-2-[(4-methoxy-3-methyl-2-pyridyl)methylsulfinyl]-1H-benzimidazole], in experiment [1], the ED25 was around 0.3 mg/kg, the ED50 is around 0.6 mg/kg and the “Gastric secretion (rats): % inhibition” value is listed as ~ 20%. In addition, the ED50 in experiment [2] was around 0.3 mg/kg.

`COc1ccc2[nH]c([S+]([O-])Cc3ncc(C)c(OC)c3C)nc2c1` (stereo not drawn) [Serial No. B, 5-methoxy-2-[(4-methoxy-3,5-dimethyl-2-pyridylmethyl)sulfinyl]-1H--benzimidazole, reference compound]: in experiment [1], the ED25 is 1.9 mg/kg, the ED50 amounted to 4.6 mg/kg and the “Gastric secretion (rats): % inhibition” value is given as 29%. In experiment [2], the 50% effect level (ED50) was put at a dose of 2.2 mg/kg.

Turning to `COc1ccnc(CSc2nc3cc(OCC(F)(F)F)ccc3[nH]2)c1C` [Serial No. 11, 2-[(4-methoxy-3-methyl-2-pyridyl)methylthio]-5-(2,2,2-trifluoroethoxy)-1H-benzimidazole], in experiment [1], the ED25 amounted to 0.5 mg/kg, the ED50 was 0.7 mg/kg and the “Gastric secretion (rats): % inhibition” value is given as 25%. The ED50 in experiment [2] came to 0.5 mg/kg.

With `COc1ccnc(C[S+]([O-])c2nc3cc(OC(F)F)c(OC(F)F)cc3[nH]2)c1C` (stereo not drawn) [Serial No. 14, 5,6-bis(difluoromethoxy)-2-[(4-methoxy-3-methyl-2-pyridyl)methylsulfinyl]-1H-benzimidazole], in experiment [1], the ED25 was around 0.3 mg/kg, the ED50 stood at 0.6 mg/kg and the “Gastric secretion (rats): % inhibition” value turned out to be 20%. The compound also yielded an ED50 in experiment [2] of 0.2 mg/kg.

With `COc1cc(C[S+]([O-])c2nc3cc(OC(F)(F)F)ccc3[nH]2)ncc1C` (stereo not drawn) [Serial No. 4, 2-[(4-methoxy-5-methyl-2-pyridyl)methylsulfinyl]-5-trifluoromethoxy-1H-benzimidazole], in experiment [1], the ED25 amounted to 0.6 mg/kg, the 50% effect level (ED50) was put at a dose of 1.6 mg/kg and the “Gastric secretion (rats): % inhibition” value is reported as 32%. It took a dose of 0.9 mg/kg to reach the 50% effect level in experiment [2] (ED50).

One may read the ED50 as the midpoint of the dose-response relation.

(Values after US4555518A, “Fluoroalkoxy substituted benzimidazoles useful as gastric acid secretion inhibitors” (Byk Gulden Lomberg Chemische Fabrik GmbH, priority 1983, dated 1985).)
